From patent publication US20250230193A1, “CYCLIC COMPOUND HAVING SELECTIVE KRAS INHIBITORY EFFECT ON HRAS AND NRAS” (CHUGAI SEIYAKU KABUSHIKI KAISHA, priority 2022, published 2025)
Where a SMILES comes first, the peptide text is derived from it. Bridges are numbered along the chain shown (N, C = ends). [ ]: non-standard residue; d: D form. The star is where a group is joined. hPhe(3-Cl-4-CF3) = N[C@@H](CCc1ccc(C(F)(F)F)c(Cl)c1)C(=O)O; NPrPhe(4-CF3) = CCCN[C@@H](Cc1ccc(C(F)(F)F)cc1)C(=O)O; NMeGly(cPent) = CN[C@H](C(=O)O)C1CCCC1; Hyp = O=C(O)[C@@H]1C[C@@H](O)CN1; NMeL = CN[C@@H](CC(C)C)C(=O)O; Morpholide = C1CN(*)CCO1; Aze = O=C(O)[C@@H]1CCN1; Ac4c = NC1(C(=O)O)CCC1; Sar = CNCC(=O)O

Assays:
[1] = biological target: GDP-bound NRAS wild-type protein (Homo sapiens, UniProt P01111); assay: Binding to NRAS by surface plasmon resonance (SPR), Single Cycle Kinetics; conditions: for NRAS/KRAS (ratio of KD value with respect to NRAS to KD value with respect to KRAS): GDP-bound NRAS wild-type vs GDP-bound KRAS wild-type
Chain of GDP-bound NRAS wild-type protein (P01111 whole entry): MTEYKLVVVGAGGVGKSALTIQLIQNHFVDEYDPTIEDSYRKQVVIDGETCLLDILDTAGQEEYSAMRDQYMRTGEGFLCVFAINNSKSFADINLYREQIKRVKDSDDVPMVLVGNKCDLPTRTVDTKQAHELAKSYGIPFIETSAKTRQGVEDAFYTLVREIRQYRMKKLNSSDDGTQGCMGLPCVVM

[2] = biological target: GDP-bound HRAS wild-type protein (Homo sapiens, UniProt P01112); assay: Binding to HRAS by surface plasmon resonance (SPR), Single Cycle Kinetics; conditions: for HRAS/KRAS (ratio of KD value with respect to HRAS to KD value with respect to KRAS): GDP-bound HRAS wild-type vs GDP-bound KRAS wild-type
Chain of GDP-bound HRAS wild-type protein (P01112 whole entry): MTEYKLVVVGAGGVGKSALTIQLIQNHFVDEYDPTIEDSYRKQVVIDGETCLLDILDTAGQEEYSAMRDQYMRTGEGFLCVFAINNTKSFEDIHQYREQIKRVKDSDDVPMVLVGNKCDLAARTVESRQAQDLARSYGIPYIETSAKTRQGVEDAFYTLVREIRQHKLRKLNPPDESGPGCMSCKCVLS

CC[C@H](C)[C@@H]1NC(=O)[C@H](CC(C)C)N(C)C(=O)C[C@@H](C(=O)N2CCOCC2)N(C)C(=O)[C@H](C2CCCC2)N(C)C(=O)C2(CCCC2)NC(=O)[C@@H]2CCCN2C(=O)[C@H](CCc2cc(F)c(C(F)(F)F)c(F)c2)NC(=O)CN(C)C(=O)[C@H](Cc2ccc(C(F)(F)F)cc2)N2CCCC[C@@H](C2=O)N(C)C(=O)CN(CC)C1=O [PP0545]
NRAS/KRAS (ratio of KD value with respect to GDP-bound NRAS wild-type protein to KD value with respect to KRAS) ([1]; KD ratio NRAS/KRAS, SPR): B (a compound having 3 or more and less than 10 is denoted as B) | HRAS/KRAS (ratio of KD value with respect to GDP-bound HRAS wild-type protein to KD value with respect to KRAS) ([2]; KD ratio HRAS/KRAS, SPR): B (a compound having 3 or more and less than 10 is denoted as B)

CC[C@H](C)[C@@H]1NC(=O)[C@@H]2CCCCCc3ccc(cc3)C[C@@H](C(=O)N(C)CC(=O)N[C@@H](CCc3ccc(C(F)(F)F)c(OC)c3)C(=O)N3C[C@H](OC4CCC4)C[C@H]3C(=O)NC3(CC(C)(C)C3)C(=O)N(C)[C@@H](C3CCCC3)C(=O)N(C)[C@H](C(=O)N(C)C)CC(=O)N2C)N2CC/C=C\C[C@@H](C2=O)N(C)C(=O)CN(C)C1=O [PP3073]
NRAS/KRAS (ratio of KD value with respect to GDP-bound NRAS wild-type protein to KD value with respect to KRAS) ([1]; KD ratio NRAS/KRAS, SPR, GDP-bound wild-type proteins): A (a compound having 10 or more and less than 20 is denoted as A) | HRAS/KRAS (ratio of KD value with respect to GDP-bound HRAS wild-type protein to KD value with respect to KRAS) ([2]; KD ratio HRAS/KRAS, SPR, GDP-bound wild-type proteins): A (a compound having 10 or more and less than 20 is denoted as A)

CCC[C@H]1C(=O)N[C@H]([C@@H](C)CC)C(=O)N2C[C@@H](OC)C[C@H]2C(=O)N(C)[C@H]2C/C=C\CCN(C2=O)[C@@H](Cc2ccc(C)cc2)C(=O)N(C)CC(=O)N[C@@H](CCc2ccc(C(F)(F)F)c(Cl)c2)C(=O)N2C[C@H](OCC)C[C@H]2C(=O)NC2(CCC2)C(=O)N(C)[C@@H](C2CCCC2)C(=O)N(C)[C@H](C(=O)N(C)C)CC(=O)N1C (stereo in doubt) [PP2552]
NRAS/KRAS (ratio of KD value with respect to GDP-bound NRAS wild-type protein to KD value with respect to KRAS) ([1]; KD ratio NRAS/KRAS, class symbols): A (a compound having 10 or more and less than 20 is denoted as A) | HRAS/KRAS (ratio of KD value with respect to GDP-bound HRAS wild-type protein to KD value with respect to KRAS) ([2]; KD ratio HRAS/KRAS, class symbols): B (a compound having 3 or more and less than 10 is denoted as B)

CC[C@H](C)[C@@H]1NC(=O)[C@H](CC(C)C)N(C)C(=O)C[C@@H](C)N(C)C(=O)[C@H](C2CCCC2)N(C)C(=O)C2(CCCC2)NC(=O)[C@@H]2CCCN2C(=O)[C@H](CCc2cc(F)c(C(F)(F)F)c(F)c2)NC(=O)CN(C)C(=O)[C@H](Cc2ccc(C(F)(F)F)cc2)N2CC/C=C\C[C@@H](C2=O)N(C)C(=O)CN(C)C1=O [PP1102]
NRAS/KRAS (ratio of KD value with respect to NRAS to KD value with respect to KRAS) ([1]; KD ratio, SPR): B (a compound having 3 or more and less than 10 is denoted as B) | HRAS/KRAS (ratio of KD value with respect to HRAS to KD value with respect to KRAS) ([2]; KD ratio, SPR): A (a compound having 10 or more and less than 20 is denoted as A)

CCCN1C(=O)[C@@H]2CCN2C(=O)CN(C)C(=O)[C@H]([C@@H](C)CC)NC(=O)[C@H](CC(C)C)N(C)C(=O)C[C@@H](C(=O)N2CCOCC2)NC(=O)[C@H](C2CCCC2)N(C)C(=O)C2(CCC2)NC(=O)[C@@H]2C[C@@H](OCC)CN2C(=O)[C@H](CCc2ccc(C(F)(F)F)c(Cl)c2)NC(=O)CN(C)C(=O)[C@@H]1Cc1ccc(C(F)(F)F)cc1 [PP0354] ([NMeL]I[Sar][Aze][NPrPhe(4-CF3)][Sar][hPhe(3-Cl-4-CF3)][Hyp](Et)[Ac4c][NMeGly(cPent)]D-Morpholide; lactam N-11)
NRAS/KRAS (ratio of KD for GDP-bound NRAS wild-type to KD for KRAS) ([1]; KD ratio NRAS/KRAS, SPR): C (A compound having a KD ratio of 0.1 or more and less than 3 is denoted as C) | HRAS/KRAS (ratio of KD for GDP-bound HRAS wild-type to KD for KRAS) ([2]; KD ratio HRAS/KRAS, SPR): B (a compound having 3 or more and less than 10 is denoted as B)

CCOC[C@H]1C(=O)N[C@@H]([C@@H](C)CC)C(=O)N(C)CC(=O)N(C)[C@H]2C/C=C\CCN(C2=O)[C@@H](Cc2ccc(C)cc2)C(=O)N(C)CC(=O)N[C@@H](CCc2cc(F)c(C(F)(F)F)c(F)c2)C(=O)N2C[C@@H](C)C[C@H]2C(=O)NC2(CC(C)(C)C2)C(=O)N(C)[C@@H](C2CCCC2)C(=O)N(C)[C@H](C(=O)N(C)CC)CC(=O)N1C [PP2457]
NRAS/KRAS (ratio of KD value with respect to NRAS to KD value with respect to KRAS) ([1]; SPR): A (a compound having 10 or more and less than 20 is denoted as A) | HRAS/KRAS (ratio of KD value with respect to HRAS to KD value with respect to KRAS) ([2]; SPR): A (a compound having 10 or more and less than 20 is denoted as A)

CCO[C@@H]1C[C@H]2C(=O)NC3(CCC3)C(=O)N(C)[C@@H](C3CCCC3)C(=O)N(C)[C@H](C(=O)N(C)CC)CC(=O)N(C)[C@@H](CC3CC3)C(=O)N[C@@H]([C@@H](C)CC)C(=O)N(C)CC(=O)N(C)[C@H]3C/C=C\CCN(C3=O)[C@@H](Cc3ccc(C(F)(F)F)cc3)C(=O)N(C)CC(=O)N[C@@H](CCc3cc(F)c(C(F)(F)F)c(F)c3)C(=O)N2C1 [PP1301]
NRAS/KRAS (ratio of KD value for GDP-bound NRAS wild-type protein to KD value for KRAS) ([1]; SPR, KD ratio class): A (a compound having 10 or more and less than 20 is denoted as A) | HRAS/KRAS (ratio of KD value for GDP-bound HRAS wild-type protein to KD value for KRAS) ([2]; SPR, KD ratio class): A (a compound having 10 or more and less than 20 is denoted as A)
